These results are taken from patent EP1289557B1, “CANCER TREATMENT COMPOSITION CONTAINING AN ANTI-NEOPLASTIC AGENT AND A PDE4 INHIBITOR” (GLAXO GROUP LIMITED, priority 2000, dated 2001).

In one assay the test system is RKO (colon). Nature of the assay: Tumor cell growth (sulforhodamine B) after chemoprotectant regimen and paclitaxel. It counts as cell-based, human. To be noted: forskolin (100 µM) plus PDE4 inhibitor (1 µM), then paclitaxel (100 nM) 24 hours; versus DMSO pretreatment. How it is done:
(§1) The human tumor cell lines HT-29 (colon: ATCC# HTB 38), RKO (colon, ATCC# HTB 130), lines A549 (lung, ATCC# CCL 185), and MDA468 (breast, ATCC# HTB 132) were obtained from the American Type Culture Collection and maintained in DMEM containing 10% FBS. Tumor cells were grown at 37°C in a humidified atmosphere of 5% CO2. Adherent tumor cells were seeded into 96 well plates and incubated for six hours to allow for attachment. After six hours the chemoprotectants forskolin (100 µM) plus rolipram (1 µM) or forskolin (100 µM) plus Ariflo™ (1µM) were added. After overnight incubation, paclitaxel (100 nM) was added for 24 hours. Cells were then washed free of chemoprotectants and paclitaxel, placed in fresh media, and grown for 5 days. Growth was measured daily using sulforhodamine B (Skehan P. et. al., (1990), J. Nat'l Cancer Inst 82:1107-12). The results are depicted in Figure 8.

For a further assay, the system named is HT-29 (colon). The description is as above. It counts as cell-based, human. Particulars: forskolin (100 µM) plus PDE4 inhibitor (1 µM), then paclitaxel (100 nM) 24 hours; versus DMSO pretreatment. The protocol: as §1
Another assay concerns A549 (lung). The assay is described as above. It counts as cell-based, human. Particulars: forskolin (100 µM) plus PDE4 inhibitor (1 µM), then paclitaxel (100 nM); cell line not completely inhibited by paclitaxel. How it is done:
as §1

Assay [1] is described as follows: Cell based assays utilized herein, PDE4 inhibitor used alone. Particulars: without forskolin.
The subject of assay [2] is expanded CD34^+ stem cells. Nature of the assay: Flow cytometric (FACS) evaluation of percent live cells after chemoprotectant pretreatment and paclitaxel. In kind it is cell-based, Human. To be noted: pretreatment rolipram (1µM) plus Forskolin (100 µM) 24 hours. The protocol:
Prevention of myelosuppression was shown by protection of neutrophil progenitors by PDE4 inhibitors from the cytotoxic effects of cancer chemotherapeutic agents. In Examples 2-7 a variety of chemically distinct PDE4 inhibitors were tested for their ability to protect neutrophil progenitors. Three methods, more completely described in the following examples, were utilized for a determination of cell survival and ability to produce daughter cells of primary human neutrophil progenitors: (1) a FACS assay which determined the percent of live cells by size and granularity; (2) a colony forming assay which measured the number of CFU-GM progenitors (a specific early stage neutrophil progenitor); and (3) a cell-based EUSA which measured CD15 antigen the value of which was proportional to the number of neutrophil lineage cells. This assay allows evaluation of neutrophil progenitors (cells that can divide and produce daughter neutrophil-lineage cells) at multiple stages of differentiation.
Human bone marrow samples were collected from presumed healthy human donors following informed consent through an agreement with Duke University Medical Center, Durham, North Carolina. Mononuclear cells were isolated using a 1.077 Ficoll-Paque gradient according to the published procedure (Dornsife, RE et al., Antimicrob Agents Chemother, 35: 322-328, (1991)) and were suspended in HBSS with 2% FBS at a concentration of 5 X 10^7 cells/ml. CD34^+ stem cells were isolated by "StemSep™ CD34^+ stem cell selection kit" by following the instructions from the manufacturer (Stem Cell Technologies). Cells were adjusted to 1 x 10^6 cells/ml in complete growth media and maintained in a humidified, 5% CO2 incubator. The complete growth media was IMDM supplemented with 20% FBS, 1% penicillin-streptomycin antibiotics, the recombinant human cytokines (Biosource)Flt-3/Flk-2 ligand (50 ng/ml), stem cell factor (50 ng/ml), interleukin-3 (40ng/ml), and G-CSF (10 ng/ml). The cells were maintained at a density of between 0.5 and 3 x 10^5 cells/ml. The CD34+ stem cells were expanded in culture over an average range of 11 to 23 days. Five groups of expanded CD34+ cells were treated with rolipram (1µM), plus Forskolin (100 µM), an adenylate cyclase activator, for 24 hours and five groups of expanded CD34+ cells were treated with DMSO for 24 hours. After 24 hours, to the 5 sets of cells that were treated with DMSO and 5 groups of cells treated with rolipram plus forskolin, paclitaxel was added to give final concentrations of 0, 30, 100, 300, and 600 nM of paclitaxel respectively and incubated for an additional 24 hours. After the 48 hours of treatment, the cells were counted, washed and re-suspended in PBS with 2% FBS. […] The prepared cells were analyzed on a BD FACSort flow cytometer. […]
Background: In flow cytometry, cells or beads pass a laser one at a time.

In the case of `COc1ccc([C@]2(C#N)CC[C@@H](C(=O)O)CC2)cc1OC1CCCC1` [Ariflo™, cis-4-cyano-4-[3-(cyclopentyloxy)-4-methoxyphenyl]cyclohexane-1-carboxylic acid], the “effect of chemoprotectant regimen on inhibition of tumour cell growth by paclitaxel” value is “no effect on the inhibition of tumour cell growth” with RKO (colon), “no effect on the inhibition of tumour cell growth” in the assay on HT-29 (colon) and “no additional protection” with A549 (lung).

With `COc1ccc(C2CNC(=O)C2)cc1OC1CCCC1` (centres unmarked) [Rolipram, rolipram], the “protective effect when used alone” value in assay [1] is given as “little protective effect”. In addition, the “effect of chemoprotectant regimen on inhibition of tumour cell growth by paclitaxel” value with RKO (colon) is listed as “no effect on the inhibition of tumour cell growth”; in the assay with HT-29 (colon), “no effect on the inhibition of tumour cell growth”; with A549 (lung), “no additional protection”. The surviving cell fractions in assay [2] (then paclitaxel 30nM 24 hours, DMSO pretreatment gave 45%) stood at 86%; in assay [2] (then paclitaxel 100nM 24 hours, DMSO pretreatment gave 27%), 81%; in assay [2] (then paclitaxel 300nM 24 hours, DMSO pretreatment gave 23%), 63%; in assay [2] (then paclitaxel 600nM 24 hours, DMSO pretreatment gave 18%), 59%.
